Literature values, collected in patent US4738979A, “α2 -blocking derivatives of imidazole” (G. D. Searle & Co., priority 1985, dated 1988).

Tested on: α2 -adrenergic receptors
Details: cited from earlier work

SMILES | selectivity (in words) | side-effects (in words)
COC(=O)[C@H]1[C@H]2C[C@H]3c4[nH]c5ccccc5c4CCN3C[C@H]2CC[C@@H]1O [rauwolscine] | lack selectivity | numerous side-effects
COC(=O)[C@@H]1[C@H]2C[C@H]3c4[nH]c5ccccc5c4CCN3C[C@@H]2CC[C@@H]1O [yohimbine] | lack selectivity | numerous side-effects
